In brackets after ≈: the same amount, converted by molar mass. Activity calls are given as the source filed them. The rule behind the calls is not given here.
Columns and labels:
[1] = test system: Hep 3B2; test: Cytotoxicity against human Hep3B cells assessed as reduction in cell viability incubated for 24 hrs under normaxic condition by MTT assay; format: cell-based
[2] = Solubility of the compound in water measured by UV-Visible spectral analysis; format: physicochemical
[3] = test system: HCT-116; test: Antitumour activity against human HCT-116 cells xenografted in nude BALB/c mouse assessed as tumour growth inhibition at 10 mg/kg, ip administered for 20 days relative to control; format: functional; design: scale not given: the % may be the effect or the level left; details: time 20 day
[4] = Toxicity in BALB/c mouse xenografted […] HCT-116 cells assessed as effect on body weight at 10 mg/kg, ip administered every day measured after 21 days; format: organism-based; details: in vivo, 504 h, time 21 day
[5] = test system: HCT-116; test: Antitumour activity against human HCT-116 cells xenografted BALB/c mouse with assessed as morphological changes in tumour tissue at 10 mg/kg, ip administered every day measured after 21 days H and E staining based optical microscopic method; format: functional, organism-based; details: time 21.0 day
[6] = test system: Hep 3B2; test: Inhibition of hypoxia-induced HIF1alpha protein expression in human Hep3B cells incubated for 12 hrs in presence of 1% O2 under hypoxic condition by Western blot analysis; format: functional, cell-based; details: dose 1-10 µM
[7] = test system: Hep 3B2; test: Antiproliferative activity against human Hep3B cells assessed as reduction in colony formation incubated for 7 days by crystal violet staining based assay; format: functional, cell-based; details: dose 1-10 µM, time 7.0 day
[8] = test system: Hep 3B2; test: Inhibition of cell migration in human Hep3B cells at incubated for 24 hrs by scratch wound healing assay; format: functional, cell-based; details: dose 1-10 µM
[9] = test system: Hep 3B2; test: Inhibition of cell migration in human Hep3B cells at incubated for 48 hrs by scratch wound healing assay; format: functional, cell-based; details: dose 1-10 µM
[10] = test system: Hep 3B2; test: Induction of apoptosis in human Hep3B cells assessed as early apoptotic cells at 1 uM incubated for 24 hrs by PI and annexin V-FITC staining based flow cytometry (reference value: 1.2%); format: functional
[11] = test system: Hep 3B2; test: Induction of apoptosis in human Hep3B cells assessed as late apoptotic cells at 1 uM incubated for 24 hrs by PI and annexin V-FITC staining based flow cytometry (reference value: 1.6%); format: functional
[12] = test system: Hep 3B2; test: Induction of apoptosis in human Hep3B cells assessed as necrotic cells at 1 uM incubated for 24 hrs by PI and annexin V-FITC staining based flow cytometry (reference value: 0.1%); format: functional
[13] = test system: Hep 3B2; test: Induction of apoptosis in human Hep3B cells assessed as viable cells at 1 uM incubated for 24 hrs by PI and annexin V-FITC staining based flow cytometry (reference value: 97.0%); format: functional; details: read-out: Activity
[14] = test system: Hep 3B2; test: Induction of apoptosis in human Hep3B cells assessed as early apoptotic cells at 3 uM incubated for 24 hrs by PI and annexin V-FITC staining based flow cytometry (reference value: 1.2%); format: functional
[15] = test system: Hep 3B2; test: Induction of apoptosis in human Hep3B cells assessed as late apoptotic cells at 3 uM incubated for 24 hrs by PI and annexin V-FITC staining based flow cytometry (reference value: 1.6%); format: functional
[16] = test system: Hep 3B2; test: Induction of apoptosis in human Hep3B cells assessed as necrotic cells at 3 uM incubated for 24 hrs by PI and annexin V-FITC staining based flow cytometry (reference value: 0.1%); format: functional
[17] = test system: Hep 3B2; test: Induction of apoptosis in human Hep3B cells assessed as viable cells at 3 uM incubated for 24 hrs by PI and annexin V-FITC staining based flow cytometry (reference value: 97.0%); format: functional; details: read-out: Activity
[18] = test system: Hep 3B2; test: Induction of apoptosis in human Hep3B cells assessed as early apoptotic cells at 10 uM incubated for 24 hrs by PI and annexin V-FITC staining based flow cytometry (reference value: 1.2%); format: functional
[19] = test system: Hep 3B2; test: Induction of apoptosis in human Hep3B cells assessed as late apoptotic cells at 10 uM incubated for 24 hrs by PI and annexin V-FITC staining based flow cytometry (reference value: 1.6%); format: functional
[20] = test system: Hep 3B2; test: Induction of apoptosis in human Hep3B cells assessed as necrotic cells at 10 uM incubated for 24 hrs by PI and annexin V-FITC staining based flow cytometry (reference value: 0.1%); format: functional
[21] = test system: Hep 3B2; test: Induction of apoptosis in human Hep3B cells assessed as viable cells at 10 uM incubated for 24 hrs by PI and annexin V-FITC staining based flow cytometry (reference value: 97.0%); format: functional; details: read-out: Activity
[22] = test system: HCT-116; test: Antitumour activity against human HCT-116 cells xenografted in nude BALB/c mouse assessed as tumour growth inhibition at 5 mg/kg, ip administered for 20 days relative to control; format: functional; design: scale not given: the % may be the effect or the level left; details: time 20 day
[23] = Toxicity in BALB/c mouse xenografted […] HCT-116 cells assessed as effect on body weight at 5 mg/kg, ip administered every day measured after 21 days; format: organism-based; details: in vivo, 504 h, time 21 day
[24] = test system: HCT-116; test: Antitumour activity against human HCT-116 cells xenografted BALB/c mouse with assessed as morphological changes in tumour tissue at 5 mg/kg, ip administered every day measured after 21 days H and E staining based optical microscopic method; format: functional, organism-based; details: time 21.0 day

CC1=C(O)C(=O)C=C2C1=CC=C1[C@@]2(C)CC[C@@]2(C)[C@@H]3C[C@](C)(C(=O)OCCOc4ccc5cccnc5c4)CC[C@]3(C)CC[C@]12C
IC50 [1]: 5.27 µM

CC1=C(O)C(=O)C=C2C1=CC=C1[C@@]2(C)CC[C@@]2(C)[C@@H]3C[C@](C)(C(=O)OCCOc4cccc5ncccc45)CC[C@]3(C)CC[C@]12C
IC50 [1]: 14.4 µM

COc1ccc(-n2cc(CNC(=O)COC(=O)[C@]3(C)CC[C@]4(C)CC[C@]5(C)C6=CC=C7C(=CC(=O)C(O)=C7C)[C@]6(C)CC[C@@]5(C)[C@@H]4C3)nn2)cc1
IC50 [1]: 9.11 µM

CC1=C(O)C(=O)C=C2C1=CC=C1[C@@]2(C)CC[C@@]2(C)[C@@H]3C[C@](C)(C(=O)O)CC[C@]3(C)CC[C@]12C [CELASTROL]
solubility [2]: 38.2 µg/mL (≈ 84.8 µM) | IC50 [1]: 0.76 µM

CC1=C(O)C(=O)C=C2C1=CC=C1[C@@]2(C)CC[C@@]2(C)[C@@H]3C[C@](C)(C(=O)OCC(=O)NCc4cn(-c5ccc(Cl)cc5)nn4)CC[C@]3(C)CC[C@]12C
IC50 [1]: 21.9 µM

CCOP(=O)(OCC)C(NC(=O)COC(=O)[C@]1(C)CC[C@]2(C)CC[C@]3(C)C4=CC=C5C(=CC(=O)C(O)=C5C)[C@]4(C)CC[C@@]3(C)[C@@H]2C1)c1ccc(OC)cc1 (some centres not stated)
IC50 [1]: 1.48 µM

CCOP(=O)(OCC)C(NC(=O)COC(=O)[C@]1(C)CC[C@]2(C)CC[C@]3(C)C4=CC=C5C(=CC(=O)C(O)=C5C)[C@]4(C)CC[C@@]3(C)[C@@H]2C1)c1ccccc1 (some centres not stated)
IC50 [1]: 1.17 µM

CC1=C(O)C(=O)C=C2C1=CC=C1[C@@]2(C)CC[C@@]2(C)[C@@H]3C[C@](C)(C(=O)OCC(=O)NCc4cn(-c5ccccc5)nn4)CC[C@]3(C)CC[C@]12C
IC50 [1]: 1.16 µM

CC1=C(O)C(=O)C=C2C1=CC=C1[C@@]2(C)CC[C@@]2(C)[C@@H]3C[C@](C)(C(=O)OCC(=O)Nc4cccc5ncccc45)CC[C@]3(C)CC[C@]12C
IC50 [1]: 1.11 µM

CC1=C(O)C(=O)C=C2C1=CC=C1[C@@]2(C)CC[C@@]2(C)[C@@H]3C[C@](C)(C(=O)OCC(=O)Nc4ccc5ncccc5c4)CC[C@]3(C)CC[C@]12C
IC50 [1]: 2.91 µM

CC1=C(O)C(=O)C=C2C1=CC=C1[C@@]2(C)CC[C@@]2(C)[C@@H]3C[C@](C)(C(=O)OCCOc4ccc5ccc(=O)oc5c4)CC[C@]3(C)CC[C@]12C
IC50 [1]: 2.45 µM

CC1=C(O)C(=O)C=C2C1=CC=C1[C@@]2(C)CC[C@@]2(C)[C@@H]3C[C@](C)(C(=O)OCC(=O)Nc4ccnc5ccccc45)CC[C@]3(C)CC[C@]12C
IC50 [1]: 4 µM

CCOP(=O)(OCC)C(NC(=O)COC(=O)[C@]1(C)CC[C@]2(C)CC[C@]3(C)C4=CC=C5C(=CC(=O)C(O)=C5C)[C@]4(C)CC[C@@]3(C)[C@@H]2C1)c1ccc(C)cc1 (some centres not stated)
IC50 [1]: 4.55 µM

CC1=C(O)C(=O)C=C2C1=CC=C1[C@@]2(C)CC[C@@]2(C)[C@@H]3C[C@](C)(C(=O)OCCOc4cc(=O)oc5ccccc45)CC[C@]3(C)CC[C@]12C
IC50 [1]: 134 µM

CCOP(=O)(OCC)C(NC(=O)COC(=O)[C@]1(C)CC[C@]2(C)CC[C@]3(C)C4=CC=C5C(=CC(=O)C(O)=C5C)[C@]4(C)CC[C@@]3(C)[C@@H]2C1)c1ccc(F)cc1 (some centres not stated)
IC50 [1]: 2.33 µM

CC1=C(O)C(=O)C=C2C1=CC=C1[C@@]2(C)CC[C@@]2(C)[C@@H]3C[C@](C)(C(=O)OCC(=O)NCc4cn(-c5ccc(Cl)c(Cl)c5)nn4)CC[C@]3(C)CC[C@]12C
IC50 [1]: 2.45 µM

CC1=C(O)C(=O)C=C2C1=CC=C1[C@@]2(C)CC[C@@]2(C)[C@@H]3C[C@](C)(C(=O)OCC(=O)Nc4ccc(F)cn4)CC[C@]3(C)CC[C@]12C
IC50 [1]: 1.26 µM

CC1=C(O)C(=O)C=C2C1=CC=C1[C@@]2(C)CC[C@@]2(C)[C@@H]3C[C@](C)(C(=O)OCCOc4cc(C)oc(=O)c4)CC[C@]3(C)CC[C@]12C
IC50 [1]: 1.16 µM

CC1=C(O)C(=O)C=C2C1=CC=C1[C@@]2(C)CC[C@@]2(C)[C@@H]3C[C@](C)(C(=O)OCC(=O)Nc4ccncc4)CC[C@]3(C)CC[C@]12C
IC50 [1]: 234 µM

CC1=C(O)C(=O)C=C2C1=CC=C1[C@@]2(C)CC[C@@]2(C)[C@@H]3C[C@](C)(C(=O)OCC(=O)Nc4cnc5ccccc5c4)CC[C@]3(C)CC[C@]12C
IC50 [1]: 1.04 µM

O=c1[nH]cc(F)c(=O)[nH]1 [FLUOROURACIL]
Activity [3]: 59.58% | Activity [4]: Non-Toxic | Activity [5]: Active

CC1=C(O)C(=O)C=C2C1=CC=C1[C@@]2(C)CC[C@@]2(C)[C@@H]3C[C@](C)(C(=O)OCC(=O)NCc4cn(-c5ccc(C)cc5)nn4)CC[C@]3(C)CC[C@]12C
IC50 [1]: 2.72 µM

CC1=C(O)C(=O)C=C2C1=CC=C1[C@@]2(C)CC[C@@]2(C)[C@@H]3C[C@](C)(C(=O)OCC(=O)Nc4ccc(F)nc4)CC[C@]3(C)CC[C@]12C
IC50 [1]: 4.21 µM

CC1=C(O)C(=O)C=C2C1=CC=C1[C@@]2(C)CC[C@@]2(C)[C@@H]3C[C@](C)(C(=O)OCC(=O)Nc4cc(C)on4)CC[C@]3(C)CC[C@]12C
IC50 [1]: 3.07 µM

CC1=C(O)C(=O)C=C2C1=CC=C1[C@@]2(C)CC[C@@]2(C)[C@@H]3C[C@](C)(C(=O)OCC(=O)Nc4cccc5cccnc45)CC[C@]3(C)CC[C@]12C
IC50 [1]: 1.69 µM

CC1=C(O)C(=O)C=C2C1=CC=C1[C@@]2(C)CC[C@@]2(C)[C@@H]3C[C@](C)(C(=O)OCCOc4cnc5ccccc5c4)CC[C@]3(C)CC[C@]12C
solubility [2]: 28.1 µg/mL (≈ 45.2 µM) | IC50 [1]: 16.9 µM | Activity [6]: Dose-Dependent Effect | Activity [7]: Dose-Dependent Effect | inhibition [8]: Dose-Dependent Effect | inhibition [9]: Dose-Dependent Effect | Activity [10]: 1.9% | Activity [11]: 1.4% | Activity [12]: 0.2% | viability at 1 µM [13]: 96.6% | Activity [14]: 1.9% | Activity [15]: 2% | Activity [16]: 0% | viability at 3 µM [17]: 96.1% | Activity [18]: 6.2% | Activity [19]: 5.7% | Activity [20]: 0.2% | viability at 10 µM [21]: 87.9% | Activity [22]: 60.38% | Activity [3]: 74.3% | Activity [23]: Non-Toxic | Activity [4]: Non-Toxic | Activity [24]: Active | Activity [5]: Active

Reference: ChEMBL document CHEMBL4837202, “Design, synthesis of novel celastrol derivatives and study on their antitumor growth through HIF-1α pathway” (Eur J Med Chem, 2021)
